Results reported in ChEMBL document CHEMBL4715859, “Small Molecules Selectively Targeting Sigma-1 Receptor for the Treatment of Neurological Diseases” (J Med Chem, 2020).

Experiments:
[1] = target: T1, Sigma non-opioid intracellular receptor 1 (Rattus norvegicus, UniProt Q9R0C9); assay: Displacement of [3H]-(+)-pentazocine from sigma 1 receptor in rat liver membranes incubated for 60 mins […] by radioactivity method; assay type: cell membranes, Membrane
[2] = target: T2, Sigma intracellular receptor 2 (Rattus norvegicus, UniProt Q5U3Y7); assay: Displacement of [3H]DTG from sigma 2 receptor in rat liver membranes incubated for 60 mins in presence of [3H]-(+)-pentazocine by radioactivity method; assay type: cell membranes, Membrane
T2 sequence (Q5U3Y7 whole entry): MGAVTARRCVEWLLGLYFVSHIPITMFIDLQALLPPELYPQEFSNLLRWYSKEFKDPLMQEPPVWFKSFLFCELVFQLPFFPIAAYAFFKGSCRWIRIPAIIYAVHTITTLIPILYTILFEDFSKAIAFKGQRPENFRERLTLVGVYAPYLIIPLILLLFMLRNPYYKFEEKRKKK

[3] = Selectivity ratio of Ki for displacement of [3H]DTG from sigma2 receptor in rat liver membranes to Ki for displacement of [3H]-(+)-pentazocine from sigma1 receptor in guinea pig brain cortex membranes; assay type: cell membranes
[4] = target: T3, Sigma non-opioid intracellular receptor 1 (Cavia porcellus, UniProt Q60492); assay: Displacement of [3H]-(+)-pentazocine from sigma1 receptor in guinea pig brain cortex membranes incubated for 120 mins by solid scintillation counting method; assay type: cell membranes, Membrane
T3 sequence (Q60492 whole entry): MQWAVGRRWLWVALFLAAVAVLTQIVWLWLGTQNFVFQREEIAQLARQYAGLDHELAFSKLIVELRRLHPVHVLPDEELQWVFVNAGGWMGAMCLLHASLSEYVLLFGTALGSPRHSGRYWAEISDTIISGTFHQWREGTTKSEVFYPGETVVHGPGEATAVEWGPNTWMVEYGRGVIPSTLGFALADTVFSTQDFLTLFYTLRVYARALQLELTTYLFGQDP

[5] = target: T2, Sigma intracellular receptor 2; assay: Displacement of [3H]DTG from sigma2 receptor in rat liver membranes incubated for 120 mins by solid scintillation counting method; assay type: cell membranes, Membrane
[6] = target: T2, Sigma intracellular receptor 2; assay: Displacement of [3H]DTG from sigma2 receptor in Wistar Hannover rat liver membranes incubated for 120 mins by solid scintillation counting method; assay type: cell membranes, Membrane
[7] = Selectivity ratio of Ki for sigma2 receptor in Wistar Hannover rat liver membranes to Ki for sigma 1 receptor in Dunkin guinea pig brain membranes; assay type: cell membranes
[8] = target: T3, Sigma non-opioid intracellular receptor 1; assay: Displacement of [3H]-(+)-pentazocine from sigma 1 receptor in Dunkin guinea pig brain membranes incubated for 120 mins by scintillation counting method; assay type: cell membranes, Membrane
[9] = target: T4, Sodium-dependent dopamine transporter (Homo sapiens, UniProt Q01959); assay: Inhibition of radioligand binding to dopamine transporter (unknown origin) at 1 uM relative to control
T4 sequence (Q01959 whole entry): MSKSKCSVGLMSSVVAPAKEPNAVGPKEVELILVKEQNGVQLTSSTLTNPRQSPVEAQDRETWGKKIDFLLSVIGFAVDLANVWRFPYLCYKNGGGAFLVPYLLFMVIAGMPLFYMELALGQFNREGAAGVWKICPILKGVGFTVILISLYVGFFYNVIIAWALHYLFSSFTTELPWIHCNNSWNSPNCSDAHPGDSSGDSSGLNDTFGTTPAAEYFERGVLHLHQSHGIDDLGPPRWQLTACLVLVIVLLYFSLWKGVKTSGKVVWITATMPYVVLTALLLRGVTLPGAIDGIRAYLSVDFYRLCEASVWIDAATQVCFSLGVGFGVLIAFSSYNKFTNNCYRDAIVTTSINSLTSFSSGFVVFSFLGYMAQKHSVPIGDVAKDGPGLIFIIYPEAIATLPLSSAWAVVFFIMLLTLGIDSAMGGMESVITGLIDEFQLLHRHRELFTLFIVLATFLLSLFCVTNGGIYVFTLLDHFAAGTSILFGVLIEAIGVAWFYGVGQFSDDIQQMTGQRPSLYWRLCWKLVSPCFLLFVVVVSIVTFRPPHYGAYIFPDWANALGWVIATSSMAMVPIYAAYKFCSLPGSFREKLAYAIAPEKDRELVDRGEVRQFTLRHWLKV

[10] = target: D(4) dopamine receptor (Homo sapiens) (UniProt P21917); assay: Inhibition of radioligand binding to dopamine D4 receptor (unknown origin) at 1 uM relative to control
D(4) dopamine receptor (Homo sapiens), sequence (P21917 whole entry): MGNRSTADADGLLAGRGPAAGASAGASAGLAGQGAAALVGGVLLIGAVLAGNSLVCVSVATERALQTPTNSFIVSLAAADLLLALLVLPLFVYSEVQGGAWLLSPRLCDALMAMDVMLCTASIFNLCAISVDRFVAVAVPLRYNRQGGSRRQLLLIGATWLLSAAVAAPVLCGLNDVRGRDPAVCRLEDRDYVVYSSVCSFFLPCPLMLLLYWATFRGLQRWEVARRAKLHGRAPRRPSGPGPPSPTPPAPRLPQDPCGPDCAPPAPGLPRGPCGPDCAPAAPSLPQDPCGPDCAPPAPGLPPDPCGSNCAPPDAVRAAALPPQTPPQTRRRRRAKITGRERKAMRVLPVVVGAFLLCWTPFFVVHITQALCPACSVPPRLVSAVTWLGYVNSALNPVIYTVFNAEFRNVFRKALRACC

[11] = target: Histamine H2 receptor (Homo sapiens) (UniProt P25021); assay: Inhibition of radioligand binding to histamine H2 receptor (unknown origin) at 1 uM relative to control
Histamine H2 receptor (Homo sapiens), sequence (P25021 whole entry): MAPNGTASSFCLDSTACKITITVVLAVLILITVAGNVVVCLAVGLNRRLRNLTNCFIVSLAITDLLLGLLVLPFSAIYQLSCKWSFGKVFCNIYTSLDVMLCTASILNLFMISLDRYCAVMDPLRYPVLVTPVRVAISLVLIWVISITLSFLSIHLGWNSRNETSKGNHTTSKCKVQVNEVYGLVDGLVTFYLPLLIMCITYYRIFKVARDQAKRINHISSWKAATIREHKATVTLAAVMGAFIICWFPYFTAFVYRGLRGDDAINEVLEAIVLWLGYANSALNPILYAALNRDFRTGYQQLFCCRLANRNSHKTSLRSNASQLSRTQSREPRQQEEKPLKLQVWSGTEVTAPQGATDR

[12] = target: T5, Sodium-dependent noradrenaline transporter (Homo sapiens, UniProt P23975); assay: Inhibition of radioligand binding to noradrenaline transporter (unknown origin) at 1 uM relative to control
T5 sequence (P23975 whole entry): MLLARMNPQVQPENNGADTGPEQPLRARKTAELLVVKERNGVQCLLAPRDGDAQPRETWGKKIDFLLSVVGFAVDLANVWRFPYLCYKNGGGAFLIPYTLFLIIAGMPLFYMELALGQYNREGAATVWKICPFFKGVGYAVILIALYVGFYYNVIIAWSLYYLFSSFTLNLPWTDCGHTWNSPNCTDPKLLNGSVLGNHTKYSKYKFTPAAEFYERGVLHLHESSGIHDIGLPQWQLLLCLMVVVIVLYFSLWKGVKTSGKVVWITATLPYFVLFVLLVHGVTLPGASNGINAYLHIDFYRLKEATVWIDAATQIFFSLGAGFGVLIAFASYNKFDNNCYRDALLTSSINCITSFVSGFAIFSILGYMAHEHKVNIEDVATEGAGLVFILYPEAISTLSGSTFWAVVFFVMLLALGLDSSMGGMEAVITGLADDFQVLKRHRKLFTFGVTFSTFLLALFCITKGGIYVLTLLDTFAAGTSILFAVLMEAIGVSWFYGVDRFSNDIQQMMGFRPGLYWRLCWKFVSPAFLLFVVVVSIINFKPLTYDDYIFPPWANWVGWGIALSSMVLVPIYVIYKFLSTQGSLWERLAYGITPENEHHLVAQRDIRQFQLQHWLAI

[13] = target: Sodium-dependent serotonin transporter (Homo sapiens, UniProt P31645); assay: Displacement of [3H]citalopram from serotonin transporter (unknown origin) by liquid scintillation counting method
Sodium-dependent serotonin transporter, sequence (P31645 whole entry): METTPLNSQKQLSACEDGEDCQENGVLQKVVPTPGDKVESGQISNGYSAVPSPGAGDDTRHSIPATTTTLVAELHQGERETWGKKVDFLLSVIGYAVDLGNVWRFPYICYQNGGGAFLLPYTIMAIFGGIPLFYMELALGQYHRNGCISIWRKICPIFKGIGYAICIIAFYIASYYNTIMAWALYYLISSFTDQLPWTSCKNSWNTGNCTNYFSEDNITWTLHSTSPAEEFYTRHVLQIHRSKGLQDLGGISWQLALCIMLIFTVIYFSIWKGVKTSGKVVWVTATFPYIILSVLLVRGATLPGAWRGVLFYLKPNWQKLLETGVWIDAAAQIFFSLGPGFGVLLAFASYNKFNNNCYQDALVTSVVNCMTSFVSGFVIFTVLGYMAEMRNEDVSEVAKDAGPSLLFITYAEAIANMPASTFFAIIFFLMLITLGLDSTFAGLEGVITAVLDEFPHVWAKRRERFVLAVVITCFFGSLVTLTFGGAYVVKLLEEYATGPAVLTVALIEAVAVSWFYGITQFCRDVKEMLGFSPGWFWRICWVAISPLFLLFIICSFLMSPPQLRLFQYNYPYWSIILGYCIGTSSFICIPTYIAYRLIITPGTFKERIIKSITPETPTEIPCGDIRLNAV

[14] = target: T4, Sodium-dependent dopamine transporter; assay: Displacement of [3H]WIN35428 from dopamine transporter (unknown origin) by liquid scintillation counting method
[15] = Selectivity ratio of Ki for displacement of [3H]DTG from sigma2 receptor in rat PC12 cells to Ki for displacement of [3H]-(+)-pentazocine from sigma1 receptor in guinea pig brain homogenate; assay type: cell-based
[16] = target: T5, Sodium-dependent noradrenaline transporter; assay: Displacement of [3H]nisoxetine from norepinephrine transporter (unknown origin) by liquid scintillation counting method
[17] = target: T2, Sigma intracellular receptor 2; assay type: cell membranes, Sprague-Dawley, Brain, Membrane
[18] = Displacement of [3H]-dio-tolylguanidine from Sigma 2 receptor in Dunkin-Hartley guinea pig brain membrane incubated for 120 mins in presence of sigma1 blocker (+)-SKF-10047 by liquid scintillation counting method; assay type: cell membranes, Cavia porcellus
Cavia porcellus = organism: Cavia porcellus; assay: Selectivity ratio of Ki for sigma 2 receptor in Dunkin-Hartley guinea pig brain membranes to Ki for sigma 1 receptor in Dunkin-Hartley guinea pig brain membrane
Histamine H3 receptor = Histamine H3 receptor (Rattus norvegicus, UniProt Q9QYN8); assay: Displacement of [3H]-methylhistamine from Histamine H3 receptor in rat cerebral cortex incubated for 30 min by liquid scintillation counting method; assay type: tissue-based
[19] = target: T3, Sigma non-opioid intracellular receptor 1; assay: Displacement of [3H]-(+)-pentazocine from sigma 1 receptor in Dunkin-Hartley guinea pig brain membranes incubated for 180 mins by liquid scintillation counting method; assay type: cell membranes, Membrane
[20] = target: T3, Sigma non-opioid intracellular receptor 1; assay: Displacement of [3H]-(+)-pentazocine from sigma 1 receptor in guinea pig brain cortex membranes incubated for 120 mins by solid scintillation counting method; assay type: cell membranes, Membrane
[21] = target: Sigma intracellular receptor 2 (Mus musculus, UniProt Q8VD00); assay: Inhibition of radioligand binding to sigma2 receptor in C57BL/6 mouse brain membranes; assay type: cell membranes, Membrane
[22] = target: Sigma non-opioid intracellular receptor 1 (Mus musculus, UniProt O55242); assay: Inhibition of radioligand binding to sigma1 receptor in C57BL/6 mouse brain membranes; assay type: cell membranes, Membrane
[23] = target: T6, Sigma non-opioid intracellular receptor 1 (Homo sapiens, UniProt Q99720); assay: Binding affinity to sigma-1 receptor (unknown origin)
T6 sequence (Q99720 whole entry): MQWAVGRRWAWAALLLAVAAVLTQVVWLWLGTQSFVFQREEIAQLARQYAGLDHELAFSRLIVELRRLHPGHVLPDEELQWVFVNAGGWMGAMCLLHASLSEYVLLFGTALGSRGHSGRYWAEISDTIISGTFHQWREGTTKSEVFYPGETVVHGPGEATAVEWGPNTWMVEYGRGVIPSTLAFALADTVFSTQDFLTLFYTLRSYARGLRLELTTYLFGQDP

[24] = target: Muscarinic acetylcholine receptor M4 (Homo sapiens, UniProt P08173); assay: Binding affinity to muscarinic acetylcholine receptor M4 (unknown origin)
[25] = target: Muscarinic acetylcholine receptor M2 (Homo sapiens, UniProt P08172); assay: Binding affinity to muscarinic acetylcholine receptor M2 (unknown origin)
Muscarinic acetylcholine receptor M2, sequence (P08172 whole entry): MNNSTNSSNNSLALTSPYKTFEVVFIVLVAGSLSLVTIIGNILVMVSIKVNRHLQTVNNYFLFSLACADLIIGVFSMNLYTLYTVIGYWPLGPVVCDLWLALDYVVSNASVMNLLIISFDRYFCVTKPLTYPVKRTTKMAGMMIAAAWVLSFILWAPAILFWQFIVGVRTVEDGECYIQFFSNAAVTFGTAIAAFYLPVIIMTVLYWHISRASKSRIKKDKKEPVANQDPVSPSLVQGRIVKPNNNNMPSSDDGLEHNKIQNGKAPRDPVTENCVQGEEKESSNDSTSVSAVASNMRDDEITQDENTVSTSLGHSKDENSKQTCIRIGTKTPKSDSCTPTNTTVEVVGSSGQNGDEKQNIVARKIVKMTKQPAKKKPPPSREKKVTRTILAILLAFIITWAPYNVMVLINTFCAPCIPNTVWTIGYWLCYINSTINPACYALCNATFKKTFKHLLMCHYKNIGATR

[26] = target: Muscarinic acetylcholine receptor M1 (Homo sapiens, UniProt P11229); assay: Binding affinity to muscarinic acetylcholine receptor M1 (unknown origin)
Muscarinic acetylcholine receptor M1, sequence (P11229 whole entry): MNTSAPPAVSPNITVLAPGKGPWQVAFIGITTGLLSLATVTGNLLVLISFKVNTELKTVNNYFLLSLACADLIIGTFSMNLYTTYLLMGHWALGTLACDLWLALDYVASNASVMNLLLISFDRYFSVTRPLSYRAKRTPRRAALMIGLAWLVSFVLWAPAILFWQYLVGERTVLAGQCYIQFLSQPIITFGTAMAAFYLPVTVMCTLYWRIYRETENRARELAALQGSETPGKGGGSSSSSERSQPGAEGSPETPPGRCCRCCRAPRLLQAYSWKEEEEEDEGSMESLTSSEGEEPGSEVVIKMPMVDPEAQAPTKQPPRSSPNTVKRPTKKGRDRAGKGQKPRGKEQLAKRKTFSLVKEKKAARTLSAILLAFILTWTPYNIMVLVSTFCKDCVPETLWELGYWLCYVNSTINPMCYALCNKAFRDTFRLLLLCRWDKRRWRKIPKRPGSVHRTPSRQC

[27] = target: Muscarinic acetylcholine receptor M3 (Homo sapiens, UniProt P20309); assay: Binding affinity to muscarinic acetylcholine receptor M3 (unknown origin)
[28] = Displacement of [3H]DTG from sigma2 receptor in guinea pig brain membranes by scintillation counting method; assay type: cell membranes, Cavia porcellus, Membrane
[29] = target: Kappa-type opioid receptor (Homo sapiens, UniProt P41145); assay: Binding affinity to kappa opioid receptor (unknown origin)
[30] = target: T1, Sigma non-opioid intracellular receptor 1; assay type: cell membranes, Sprague-Dawley, Brain, Membrane
[31] = target: Sigma intracellular receptor 2 (Homo sapiens, UniProt Q5BJF2); assay: Binding affinity to sigma-2 receptor (unknown origin)
Sigma intracellular receptor 2 (Homo sapiens, UniProt Q5BJF2), sequence (Q5BJF2 whole entry): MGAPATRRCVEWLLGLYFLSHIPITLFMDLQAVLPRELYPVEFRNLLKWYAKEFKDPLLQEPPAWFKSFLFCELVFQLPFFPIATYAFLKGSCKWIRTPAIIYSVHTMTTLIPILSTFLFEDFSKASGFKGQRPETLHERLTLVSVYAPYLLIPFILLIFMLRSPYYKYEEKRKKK

[32] = target: Alpha-2A adrenergic receptor (Homo sapiens, UniProt P08913); assay: Binding affinity to alpha 2A adrenoceptor (unknown origin)
Alpha-2A adrenergic receptor, sequence (P08913 whole entry): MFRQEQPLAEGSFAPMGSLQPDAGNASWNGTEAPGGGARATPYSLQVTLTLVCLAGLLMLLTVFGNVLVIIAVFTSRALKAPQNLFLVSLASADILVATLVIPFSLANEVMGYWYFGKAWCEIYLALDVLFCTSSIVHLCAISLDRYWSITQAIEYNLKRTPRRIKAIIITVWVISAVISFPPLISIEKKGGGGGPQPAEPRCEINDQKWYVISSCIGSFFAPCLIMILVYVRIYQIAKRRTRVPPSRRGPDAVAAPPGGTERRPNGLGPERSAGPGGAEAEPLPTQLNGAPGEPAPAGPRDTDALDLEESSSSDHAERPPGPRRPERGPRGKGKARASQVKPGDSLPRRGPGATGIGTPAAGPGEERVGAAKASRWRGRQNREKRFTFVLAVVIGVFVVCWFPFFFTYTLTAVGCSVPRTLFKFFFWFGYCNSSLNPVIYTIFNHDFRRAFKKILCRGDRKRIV

[33] = target: T6, Sigma non-opioid intracellular receptor 1

T1 sequence (Q9R0C9 whole entry): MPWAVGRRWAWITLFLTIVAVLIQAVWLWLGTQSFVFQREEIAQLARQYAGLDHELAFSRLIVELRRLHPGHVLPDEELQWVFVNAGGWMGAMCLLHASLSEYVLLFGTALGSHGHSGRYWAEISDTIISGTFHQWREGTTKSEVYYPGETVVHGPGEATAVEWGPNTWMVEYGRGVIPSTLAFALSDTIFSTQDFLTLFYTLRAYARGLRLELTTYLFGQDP

SMILES: c1ccc(CN2CCC3(CCc4ccccc4S3)CC2)cc1
- Ki [1]: 0.5 nM
- Ki [2]: 416 nM

SMILES: c1ccc(CC2CCN(CC3CCCCC3)Cc3ccccc32)cc1 (configuration not stated)
- Ratio Ki [3]: > 52
- Ki [4]: 2.4 nM
- Ki [5]: 125 nM

SMILES: COc1ccc2c(CCCCN3C4CCCC3CCC4)cccc2c1
- Ki [6]: 226 nM
- Ratio Ki [7]: 317
- Ki [8]: 1.03 nM

SMILES: c1ccc(CO[C@H](c2ccccc2)[C@H]2CCN(Cc3ccccc3)Cc3ccccc32)cc1
- Ratio Ki [3]: > 52
- Ki [4]: 9 nM
- Ki [5]: 668 nM

SMILES: Fc1ccc(CN2CCC(Cc3ccccc3)c3ccccc3C2)cc1 (configuration not stated)
- Ratio Ki [3]: > 52
- inhibition [9]: 85%
- inhibition [10]: 91%
- inhibition [11]: 59%
- Ki [4]: 7.1 nM
- inhibition [12]: 71%
- Ki [5]: 889 nM

SMILES: c1ccc(OCc2cc(OCCNC3CCC3)no2)cc1
- Ki [13]: > 7000 nM
- Ki [14]: > 7000 nM
- Ratio Ki [15]: 990
- Ki [16]: > 7000 nM

SMILES: CNCCC(Oc1ccc(C(F)(F)F)cc1)c1ccccc1 (configuration not stated) [FLUOXETINE]
- Ki [17]: 16100 nM

SMILES: CCOC1(c2ncc(-c3cccnc3)s2)CCN(Cc2ccccc2)CC1
- Ratio Ki [3]: > 1500
- Ki [4]: 1.3 nM
- Ki [5]: 2130 nM

SMILES: CCOC1(c2ncc(-c3ccncc3)s2)CCN(Cc2ccccc2)CC1
- Ratio Ki [3]: > 1500
- Ki [4]: 1.9 nM
- Ki [5]: 3600 nM

SMILES: Clc1ccc(-c2noc(CCCCN3CCOCC3)n2)c(Cl)c1
- Ki [18]: 164 nM
- Ratio Ki (Cavia porcellus): 587
- Ki (Histamine H3 receptor): 23.2 nM
- Ki [19]: 0.28 nM

SMILES: O=C(COc1ccc(Cl)c(Cl)c1)NCCN1CCOCC1
- Ki [20]: 42 nM
- Ki [5]: 1500 nM

SMILES: C#CCN(C)CCCOc1ccc(Cl)cc1Cl [CLORGILINE]
- Ki [21]: 505 nM
- Ki [22]: 2.9 nM

SMILES: CN(C)CC1CCOC1(c1ccccc1)c1ccccc1 (configuration not stated) [BLARCAMESINE]
- IC50 [23]: 860 nM
- IC50 [24]: 3300 nM
- IC50 [25]: 3300 nM
- IC50 [26]: 3300 nM
- IC50 [27]: 3300 nM

SMILES: COc1ccc(CCN2CCN(CCCc3ccccc3)CC2)cc1OC [[11C]SA4503]
- IC50 [28]: 1800 nM

SMILES: CC(C)=CCN1CCC2(C)c3cc(O)ccc3CC1C2C (configuration not stated) [PENTAZOCINE]
- Ki [29]: 2.2 nM

SMILES: CN(C)CCCN1c2ccccc2CCc2ccccc21 [IMIPRAMINE]
- Ki [17]: 2110 nM
- Ki [30]: 343 nM

SMILES: C=C1CCN2Cc3ccc(OC)cc3[C@H]3CCCC[C@]32C1
- Ki [23]: 8 nM
- Ki [31]: 152 nM
- Ki [32]: 531 nM

SMILES: CCN(CC)CCOCCOC(=O)C1(c2ccccc2)CCCC1 [CARBETAPENTANE]
- Ki [23]: 129 nM
- Ki [31]: 1950 nM

SMILES: CCCN1CCC(c2cccc(S(C)(=O)=O)c2)CC1 [PRIDOPIDINE]
- Ki [33]: 81.7 nM
